Read-outs that look alike come from different tables or passages of the source. Starred links: 1 amine or outer side, 2 acyl side, 3 side chain; linkers in the order of their positions; H or OH if unused. Non-standard residues stand in square brackets, D forms with d. Residues, ends and D or L forms follow the SMILES beside them. Groups on a side chain read outwards from the residue. *: point of attachment. C20 diacid = O=C(O)CCCCCCCCCCCCCCCCCCC(=O)*; γGlu = O=C(O)[C@H](CCC(=O)[*:2])N[*:1]; NMeI = CC[C@H](C)[C@H](NC)C(=O)O; Nle = CCCC[C@H](N)C(=O)O; AEEA = NCCOCCOCC(=O)O; Aib = CC(C)(N)C(=O)O
Key:
hCRHR2 = molecular target: T1, hCRHR2 (Homo sapiens, UniProt Q13324); test: HTRF cAMP assay, determination of hCRHR2 potency (peptide libraries 5 conc., purified peptides 11 conc.); type: cell-based
T1 sequence (Q13324 1-411): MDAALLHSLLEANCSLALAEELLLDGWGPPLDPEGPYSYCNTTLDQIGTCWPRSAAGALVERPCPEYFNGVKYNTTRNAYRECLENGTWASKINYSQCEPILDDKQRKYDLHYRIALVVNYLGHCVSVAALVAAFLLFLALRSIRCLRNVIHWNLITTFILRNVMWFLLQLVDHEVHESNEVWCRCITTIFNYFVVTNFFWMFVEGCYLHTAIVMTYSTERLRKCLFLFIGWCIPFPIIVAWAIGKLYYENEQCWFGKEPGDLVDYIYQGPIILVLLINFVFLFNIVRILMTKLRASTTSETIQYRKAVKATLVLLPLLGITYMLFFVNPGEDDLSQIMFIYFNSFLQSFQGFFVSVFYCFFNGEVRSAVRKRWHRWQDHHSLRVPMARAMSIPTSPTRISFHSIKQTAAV
Method in brief: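 CHO-K1 cells stably expressing human CRHR2 were thawed from frozen stocks immediately before use and assayed in suspension with agonist peptides. cAMP was measured by time-resolved FRET in a competitive immunoassay between cryptate-labelled anti-cAMP antibody and d2-labelled cAMP. EC50 values came from nonlinear regression, sigmoid variable-slope fit.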

hCRHR1 = molecular target: T2, hCRHR1 (Homo sapiens, UniProt P34998); test: HTRF cAMP assay, determination of hCRHR1 potency (peptide libraries 5 conc., purified peptides 11 conc.); type: cell-based
T2 sequence (P34998 24-415): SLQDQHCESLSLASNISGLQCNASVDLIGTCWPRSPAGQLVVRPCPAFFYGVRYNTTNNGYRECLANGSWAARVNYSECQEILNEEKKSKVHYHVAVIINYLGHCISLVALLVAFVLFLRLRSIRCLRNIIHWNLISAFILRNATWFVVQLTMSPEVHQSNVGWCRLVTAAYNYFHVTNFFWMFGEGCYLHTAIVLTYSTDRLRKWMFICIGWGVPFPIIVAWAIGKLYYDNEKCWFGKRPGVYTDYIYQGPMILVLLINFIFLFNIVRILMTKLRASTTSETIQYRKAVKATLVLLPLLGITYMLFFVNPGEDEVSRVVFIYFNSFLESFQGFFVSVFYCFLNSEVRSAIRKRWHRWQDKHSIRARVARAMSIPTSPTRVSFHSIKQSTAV
Method in brief: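 CHO-K1 cells stably expressing human CRHR1, thawed from frozen stocks just before use, were stimulated in suspension with agonist peptides. cAMP was measured by HTRF competitive immunoassay (cryptate anti-cAMP antibody vs d2-cAMP).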

[1] = Thioflavin T fibril formation assay of purified peptides; type: physicochemical; design: key: Amyloid fibril formation detected by an increase in ThT fluorescence was denoted with "Yes"; samples without increasing ThT fluorescence hence not forming amyloid fibrils were denoted "No"; settings: for Amyloid fibril formation + semaglutide (Ozempic®), pH 7.4: 200 µM compound dissolved in semaglutide drug product, listed as None = drug product alone; for Amyloid fibril formation pH 7.0 / Amyloid fibril formation pH 7.5 / Amyloid fibril formation pH 8.0: 200 µM in 50 mM phosphate buffer
Method in brief: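 Compounds at 200 µM in 50 mM phosphate buffer at the stated pH values, or at 200 µM in semaglutide drug product adjusted to pH 7.4, with 4 µM ThT final. Fibrillation followed as ThT fluorescence (ex 450/em 480 nm) over 96 h at 40°C, with 5 min shaking at 700 rpm alternating with 5 min rest; triplicates.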

[2] = Table 5, purified peptides, read-out: hCRHR2 EC50
[3] = Table 5, purified peptides, read-out: hCRHR1 EC50
[4] = stable cell system, Table 10, read-out: Stable EC50 (nM) hCRHR 1

| Compound | EC50 (hCRHR2; Table 4, library peptides having X^38 = Nle, read-out: hCRHR2 pEC50 (converted)) [nM] | Selectivity ratio (hCRHR1/ hCRHR2) (hCRHR2; Table 5) | EC50 (hCRHR2; [2]) [nM] | EC50 (hCRHR1; Table 4, library peptides having X^38 = Nle, read-out: hCRHR1 pEC50 (converted)) [nM] | EC50 (hCRHR1; [3]) [nM] | EC50 (hCRHR1; [4]) [nM] | Amyloid fibril formation + semaglutide (Ozempic®), pH 7.4 [1] | Amyloid fibril formation pH 7.0 [1] | Amyloid fibril formation pH 7.5 ([1]; pH 7.5) | Amyloid fibril formation pH 8.0 [1] | Fibrillation (pH 7.5) ([1]; pH 7.5) | Selectivity ratio (hCRHR1/ hCRHR2) (hCRHR2; hCRHR1-EC50/hCRHR2-EC50) | EC50 (hCRHR2; purified peptides, CHO-K1 cells stably expressing hCRHR2, cAMP HTRF, read-out: hCRHR2 EC50) [nM] | EC50 (hCRHR1; purified peptides, CHO-K1 cells stably expressing hCRHR1, cAMP HTRF, read-out: hCRHR1 EC50) [nM] | Fibrillation (pH 7.5) ([1]; pH 7.5, ThT assay) |
| --- | --- | --- | --- | --- | --- | --- | --- | --- | --- | --- | --- | --- | --- | --- | --- |
| CCCC[C@H](NC(=O)[C@@H](NC(=O)[C@H](CCC(=O)O)NC(=O)C(C)(C)NC(=O)[C@H](CC(N)=O)NC(=O)[C@@H](NC(=O)[C@H](CCCCNC(=O)COCCOCCNC(=O)COCCOCCNC(=O)CC[C@H](NC(=O)CC[C@H](NC(=O)CCCCCCCCCCCCCCCCCCC(=O)O)C(=O)O)C(=O)O)NC(=O)[C@H](C)NC(=O)[C@H](CCC(N)=O)NC(=O)[C@H](CCC(=O)O)NC(=O)[C@H](CCCNC(=N)N)NC(=O)[C@H](C)NC(=O)[C@H](C)NC(=O)[C@H](CCCNC(=N)N)NC(=O)[C@H](C)NC(=O)[C@H](CCCNC(=N)N)NC(=O)[C@H](C)NC(=O)[C@H](CCC(N)=O)NC(=O)[C@H](CO)NC(=O)[C@H](CC(C)C)NC(=O)[C@H](CC(C)C)NC(=O)[C@@H](NC(=O)[C@H](CCC(N)=O)NC(=O)[C@H](CC(C)C)NC(=O)[C@H](CC(C)C)NC(=O)CNC(=O)[C@@H](NC(=O)[C@@H]1CCCN1C(=O)[C@@H](NC(=O)[C@H](CC(=O)O)NC(=O)[C@H](CC(C)C)NC(=O)[C@H](CO)NC(=O)[C@H](CC(C)C)NC(=O)[C@@H](NC(=O)[C@@H](NC)[C@@H](C)CC)C(C)C)C(C)C)[C@@H](C)CC)[C@@H](C)CC)[C@@H](C)O)[C@@H](C)CC)C(=O)N[C@@H](C)C(=O)N[C@@H](CCC(=O)O)C(=O)N[C@H](C(N)=O)C(C)C [SEQ ID NO: 215] (H-[NMeI]VLSLDVPIGLLQILLSQARARAAREQAK([AEEA-AEEA-γGlu-γGlu-C20 diacid])TN[Aib]EI[Nle]AEV-NH2) | 0.0251 | >5747 | 0.87 | 3160 | > 5000 | > 5000 | No | No | No | No | No |  |  |  |  |
| CCCC[C@H](NC(=O)[C@@H](NC(=O)[C@H](CCC(=O)O)NC(=O)[C@H](C)NC(=O)[C@H](CC(N)=O)NC(=O)C(C)(C)NC(=O)[C@H](CCCCNC(=O)COCCOCCNC(=O)COCCOCCNC(=O)CC[C@H](NC(=O)CC[C@H](NC(=O)CCCCCCCCCCCCCCCCCCC(=O)O)C(=O)O)C(=O)O)NC(=O)[C@H](C)NC(=O)[C@H](CCC(N)=O)NC(=O)[C@H](CCC(=O)O)NC(=O)[C@H](CCCNC(=N)N)NC(=O)[C@H](C)NC(=O)[C@H](C)NC(=O)[C@H](CCCNC(=N)N)NC(=O)[C@H](C)NC(=O)[C@H](CCCNC(=N)N)NC(=O)[C@H](C)NC(=O)[C@H](CCC(N)=O)NC(=O)[C@H](CO)NC(=O)[C@H](CC(C)C)NC(=O)[C@H](CC(C)C)NC(=O)[C@@H](NC(=O)[C@H](CCC(N)=O)NC(=O)[C@H](CC(C)C)NC(=O)[C@H](CC(C)C)NC(=O)CNC(=O)[C@@H](NC(=O)[C@@H]1CCCN1C(=O)[C@@H](NC(=O)[C@H](CC(=O)O)NC(=O)[C@H](CC(C)C)NC(=O)[C@H](CO)NC(=O)[C@H](CC(C)C)NC(=O)[C@@H](NC(=O)[C@@H](N)[C@@H](C)CC)C(C)C)C(C)C)[C@@H](C)CC)[C@@H](C)CC)[C@@H](C)CC)C(=O)N[C@@H](C)C(=O)N[C@@H](CCC(=O)O)C(=O)N[C@H](C(N)=O)C(C)C [compound 237] (H-IVLSLDVPIGLLQILLSQARARAAREQAK([AEEA-AEEA-γGlu-γGlu-C20 diacid])[Aib]NAEI[Nle]AEV-NH2) |  | >6494 | 0.77 |  | > 5000 |  |  |  |  |  | No |  |  |  |  |
| CCCC[C@H](NC(=O)[C@@H](NC(=O)[C@H](CCC(=O)O)NC(=O)[C@H](C)NC(=O)[C@H](CC(N)=O)NC(=O)C(C)(C)NC(=O)[C@H](CCCCNC(=O)COCCOCCNC(=O)COCCOCCNC(=O)CC[C@H](NC(=O)CC[C@H](NC(=O)CCCCCCCCCCCCCCCCCCC(=O)O)C(=O)O)C(=O)O)NC(=O)[C@H](C)NC(=O)[C@H](CCC(N)=O)NC(=O)[C@H](CCC(=O)O)NC(=O)[C@H](CCCNC(=N)N)NC(=O)[C@H](C)NC(=O)[C@H](C)NC(=O)[C@H](CCCNC(=N)N)NC(=O)[C@H](C)NC(=O)[C@H](CCCNC(=N)N)NC(=O)[C@H](C)NC(=O)[C@H](CCC(N)=O)NC(=O)[C@H](CO)NC(=O)[C@H](CC(C)C)NC(=O)[C@H](CC(C)C)NC(=O)[C@@H](NC(=O)[C@H](CCC(N)=O)NC(=O)[C@H](CC(C)C)NC(=O)[C@H](CC(C)C)NC(=O)CNC(=O)[C@@H](NC(=O)[C@@H]1CCCN1C(=O)[C@@H](NC(=O)[C@H](CC(=O)O)NC(=O)[C@H](CC(C)C)NC(=O)[C@H](CO)NC(=O)[C@H](CC(C)C)NC(=O)[C@@H](NC(=O)[C@@H]1CCCN1)C(C)C)C(C)C)[C@@H](C)CC)[C@@H](C)CC)[C@@H](C)CC)C(=O)N[C@@H](C)C(=O)N[C@@H](CCC(=O)O)C(=O)N[C@H](C(N)=O)C(C)C [SEQ ID NO: 238] (H-PVLSLDVPIGLLQILLSQARARAAREQAK([AEEA-AEEA-γGlu-γGlu-C20 diacid])[Aib]NAEI[Nle]AEV-NH2) |  | >6329 | 0.79 |  | > 5000 | > 5000 | No | No | No | No | No |  |  |  |  |
| CC[C@H](C)[C@H](NC)C(=O)N[C@H](C(=O)N[C@@H](CC(C)C)C(=O)N[C@@H](CO)C(=O)N[C@@H](CC(C)C)C(=O)N[C@@H](CC(=O)O)C(=O)N[C@H](C(=O)N1CCC[C@H]1C(=O)N[C@H](C(=O)NCC(=O)N[C@@H](CC(C)C)C(=O)N[C@@H](CC(C)C)C(=O)N[C@@H](CCC(N)=O)C(=O)N[C@H](C(=O)N[C@@H](CC(C)C)C(=O)N[C@@H](CC(C)C)C(=O)N[C@@H](CCC(=O)O)C(=O)N[C@@H](CCC(N)=O)C(=O)N[C@@H](C)C(=O)N[C@@H](CCCNC(=N)N)C(=O)N[C@@H](C)C(=O)N[C@@H](CCCNC(=N)N)C(=O)N[C@@H](C)C(=O)N[C@@H](C)C(=O)N[C@@H](CCCNC(=N)N)C(=O)N[C@@H](CCC(=O)O)C(=O)N[C@@H](CCC(N)=O)C(=O)N[C@@H](C)C(=O)N[C@@H](CCCCNC(=O)COCCOCCNC(=O)COCCOCCNC(=O)CC[C@H](NC(=O)CC[C@H](NC(=O)CCCCCCCCCCCCCCCCCCC(=O)O)C(=O)O)C(=O)O)C(=O)N[C@H](C(=O)N[C@@H](CC(N)=O)C(=O)NC(C)(C)C(=O)N[C@@H](CCC(=O)O)C(=O)N[C@H](C(=O)N[C@@H](CC(C)C)C(=O)N[C@@H](C)C(=O)N[C@@H](CCC(=O)O)C(=O)N[C@H](C(N)=O)C(C)C)[C@@H](C)CC)[C@@H](C)O)[C@@H](C)CC)[C@@H](C)CC)C(C)C)C(C)C [SEQ ID NO: 16] (H-[NMeI]VLSLDVPIGLLQILLEQARARAAREQAK([AEEA-AEEA-γGlu-γGlu-C20 diacid])TN[Aib]EILAEV-NH2) |  |  |  |  |  | > 5000 | No | No | No | No |  | >1852 | 2.7 | > 5000 | No |

From EP4810052A2, “HCRHR2 SELECTIVE POLYPEPTIDES” (Gubra A/S, priority 2023, dated 2026)
